Test results reported in US7759350B2, “Pyrimidine carboxamides” (Orchid Research Laboratories Ltd., priority 2005, dated 2010).

What was measured:
NCI-H460 = assay: Anti-cancer screen (MTT), NCI-H460; assay type: cell-based; settings: Homo sapiens, NCI-H460; 48 hours, MTT
[1] = system: Carrageenan induced paw edema in rat; assay: Carrageenan induced paw edema test in rat; assay type: in vivo; settings: 5 mg/kg oral; male wistar rats; 3 hours after carrageenan
Procedure: Carrageenan Induced Paw Edema Test in Rat
The carrageenan paw edema test was performed as described by Winter et al (Proc. Soc. Exp. Biol. Med, 111, 544, 1962). Male wistar rats were selected with body weights equivalent within each group. The rats were fasted for eighteen hours with free access to water. The rats were dosed orally with the test compound suspended in vehicle containing 0.25% carboxymethylcellulose and 0.5% Tween 80. The control rats were administered with vehicle alone. After an hour, the rats were injected with 0.1 ml of 1% Carrageenan solution in 0.9% saline into the sub-plantar surface of the right hind paw. Paw volume was measured using digital plethysmograph before and after 3 hours of carrageenan injection. The average of foot swelling in drug treated animals was compared with that of control animals. Anti-inflammatory activity was expressed as the percentage inhibition of edema compared with control group [Arzneim-Forsch/Drug Res., 43 (I), 1,44-50,1993; Otterness and Bliven, Laboratory Models for Testing NSAIDs, In Non-Steroidal Anti-Inflammatory Drugs, (J. Lombardino, ed. 1985)].

[2] = target: purified recombinant COX-1 enzyme (Homo sapiens, UniProt P23219); assay: COX-1 enzyme based assay; assay type: biochemical; settings: Conc. 10 μM
Procedure: COX-1 and COX-2 Enzyme Based Assay
COX-2 enzyme based assays were carried out to check the inhibitory potential of test compounds on the production of prostaglandin by purified recombinant COX-1/COX-2 enzyme (Proc. Nat. Acad. Sci. USA, 88, 2692-2696, 1991; Clin. Immunoassay 15, 116-120, 1992) In this assay, the potential of the test compound to inhibit the production of prostaglandin either by COX-1 or COX-2 from arachidonic acid (substrate) was measured. This was an enzyme based in-vitro assay to evaluate selective COX inhibition with good reproducibility.
Arachidonic acid was converted to PGH2 (Intermediate product) by COX1/COX-2 in presence or absence of the test compound. The reaction was carried out at 37° C. and after 2 minutes it was stopped by adding 1M HCl. Intermediate products PGH2 was converted to a stable Prostanoid product PGF2α by SnCl2 reduction. The amount of PGF2α produced in the reaction was inversely proportional to the COX inhibitory potential of the test compound. The prostanoid product was quantified via enzyme immunoassay (EIA) using a broadly specific antibody that binds to all the major forms of Prostaglandin, using Cayman ELISA kit as per the procedure outlined by the manufacturer Cayman Chemicals, Ann Arbor, USA).

IL-1β = assay: In vitro measurement of IL-1β in human PBMC; assay type: cell-based; settings: Conc. 0.1 μM, LPS
How it was run: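 Human PBMC (0.5 million/well) preincubated with compound 15 min at 37° C., then stimulated with E. coli LPS (1 μg/ml) for 18 h at 37° C. Cytokine in culture medium quantified by ELISA.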

Chain of purified recombinant COX-1 enzyme (P23219 24-599): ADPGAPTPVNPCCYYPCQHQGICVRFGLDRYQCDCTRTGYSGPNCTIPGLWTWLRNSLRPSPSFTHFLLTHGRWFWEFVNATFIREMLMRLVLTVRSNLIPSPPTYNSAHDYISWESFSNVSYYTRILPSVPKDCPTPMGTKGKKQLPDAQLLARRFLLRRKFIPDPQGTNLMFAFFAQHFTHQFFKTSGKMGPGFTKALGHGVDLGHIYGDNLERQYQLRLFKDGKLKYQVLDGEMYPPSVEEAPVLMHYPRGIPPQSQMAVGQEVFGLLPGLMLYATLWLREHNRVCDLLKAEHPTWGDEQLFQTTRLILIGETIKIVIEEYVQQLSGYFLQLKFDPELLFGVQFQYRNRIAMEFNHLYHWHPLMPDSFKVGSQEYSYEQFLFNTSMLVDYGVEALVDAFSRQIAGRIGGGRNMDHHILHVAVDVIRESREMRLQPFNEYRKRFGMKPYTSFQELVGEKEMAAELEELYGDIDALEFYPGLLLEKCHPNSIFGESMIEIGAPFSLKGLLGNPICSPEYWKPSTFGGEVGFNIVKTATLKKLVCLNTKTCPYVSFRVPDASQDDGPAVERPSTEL

GI50 (NCI-H460): 5.15 µM
COX-1 Inhibition (%) [2]: Not Active
Compound: CNc1nc(-c2ccncc2)nc(SC)c1C(=O)Nc1ccc(OC)cc1 [Example 14, N-(4-Methoxyphenyl)-4-(methylamino)-6-(methylthio)-2-pyridin-4-ylpyrimidine-5-carboxamide]
Inhibition of edema (%) at 5 mg/kg [1]: 31.02%
IL-1β Inhibition (%) (IL-1β): Not active
